≈ marks a conversion by molar mass, not a printed value. Like-named read-outs stand apart in the source and are kept apart here.

One data set deals with HepG2 cells. Nature of the data set: HepG2 cytotoxicity. As to conditions: Homo sapiens, HepG2, read-out: HepG2 inhibitory concentration (IC50).
A short description of data set [1]: physchem. The format is physicochemical.
The format of data set [2] is in vitro ADME, mouse. As to conditions: mouse; for Mouse Heps Cl: hepatocytes.
Data set [3] in a line: physchem. As to conditions: pH 7.4.
The format of data set [4] is in vitro ADME, mouse. As to conditions: for Microsomal Cli: CD1, mouse; for Mouse micro Cl: microsomes.
A further data set concerns M. tuberculosis (H37Rv). Nature of the data set: microbe, parasite or virus in culture. The format is cell-based, Mycobacterium tuberculosis. As to conditions: Mycobacterium tuberculosis, H37RV.
Setting [5] is: pH 7.4, aqueous buffer, kinetic from dmso stock.
[6] abbreviates: read-out: Wk2_7H9/DPPC/ casitone/ Tyloxapol MIC.
Setting [7] is: read-out: Wk2_ 7H9/DPPC/ cholesterol/BSA/ Tyloxapol MIC.
The mark [8] stands for this setting: read-out: Wk2_7H9/glucose/ BSA/Tyloxapol MIC.
Setting [9] is: read-out: Wk2_7H9/glucose/ casitone/ Tyloxapol MIC.

From the text for HepG2 cells: Assays to establish HepG2 cytotoxicity, in vitro microsomal/hepatocyte metabolic stability, aqueous kinetic solubility, and in vivo pharmacokinetic profiles were all performed as previously described.[15],[35]−[37]

Take `CCOC(=O)c1nc(-c2ccccc2)oc1NC(=O)c1c(F)c(F)c(F)c(F)c1F` [Compound 34, CCOC(=O)c1nc(oc1NC(=O)c1c(c(c(c(c1F)F)F)F)F)-c1ccccc1]: the IC50 in the data set with HepG2 cells was determined as 93 µM. Further, the solubility kinetic in “physchem [1]” (setting [5]) and in “physchem [1]” (read-out: Kin. Sol) was 21 µM (≈ 8.95 µg/mL) throughout. Besides, the “Hepatocyte Cli” value in data set [2] worked out at 10 mL/min/g. In data set [2], the “Mouse Heps Cl” value worked out at 10 mL/min/g. Also, the chromatographic logD in “physchem [3]” was determined as 3. Also, the “Microsomal Cli” value in data set [4] is on record as 6.9 mL/min/g. In addition, the “Mouse micro Cl” value in data set [4] was determined as 6.9 mL/min/g. Besides, the MIC in the data set on M. tuberculosis (H37Rv) (read-out: H37Rv MIC A) amounted to 0.8 µM (≈ 0.341 µg/mL); with M. tuberculosis (H37Rv) (read-out: H37Rv MIC B) it was 4.7 µM (≈ 2 µg/mL); with M. tuberculosis (H37Rv) (setting [6]) it was 0.8 µM (≈ 0.341 µg/mL); in the data set on M. tuberculosis (H37Rv) (setting [7]), 4.7 µM (≈ 2 µg/mL); in the data set with M. tuberculosis (H37Rv) (setting [8]), 4.7 µM (≈ 2 µg/mL); in the data set on M. tuberculosis (H37Rv) (setting [9]), 0.3 µM (≈ 0.128 µg/mL).

As to `CCOC(=O)c1nc(CN(C)C)oc1NC(=O)c1c(F)c(F)c(F)c(F)c1F` [Compound 35, CCOC(=O)c1nc(oc1NC(=O)c1c(c(c(c(c1F)F)F)F)F)CN(C)C], the IC50 in the data set on HepG2 cells was over 100 µM. Moreover, the solubility kinetic in “physchem [1]” (setting [5]) and in “physchem [1]” (read-out: Kin. Sol) was 225 µM (≈ 91.6 µg/mL) in each case. The “Hepatocyte Cli” value in data set [2] came out at 4.7 mL/min/g. Also, the “Mouse Heps Cl” value in data set [2] stood at 4.7 mL/min/g. This compound displayed a chromatographic logD in the data set “physchem [3]” of 1.3. Besides, in data set [4], the “Microsomal Cli” value is under 0.5 mL/min/g. Further, in data set [4], the “Mouse micro Cl” value is reported as under 0.5 mL/min/g. Further, the MIC with M. tuberculosis (H37Rv) (read-out: H37Rv MIC A) was 2.3 µM (≈ 0.937 µg/mL); in the data set with M. tuberculosis (H37Rv) (read-out: H37Rv MIC B), 4.7 µM (≈ 1.91 µg/mL); in the data set on M. tuberculosis (H37Rv) (setting [6]) it was 2.3 µM (≈ 0.937 µg/mL); in the data set on M. tuberculosis (H37Rv) (setting [7]), 4.7 µM (≈ 1.91 µg/mL); with M. tuberculosis (H37Rv) (setting [8]), 4.7 µM (≈ 1.91 µg/mL); in the data set on M. tuberculosis (H37Rv) (setting [9]) it was 1.6 µM (≈ 0.652 µg/mL).

Turning to `Cc1nc(C(=O)OC(C)(C)C)c(NC(=O)c2c(F)c(F)c(F)c(F)c2F)o1` [Compound 36, Cc1nc(c(o1)NC(=O)c1c(c(c(c(c1F)F)F)F)F)C(=O)OC(C)(C)C], the IC50 in the data set with HepG2 cells is over 100 µM. In addition, the solubility kinetic in the data set “physchem [1]” (setting [5]) and in “physchem [1]” (read-out: Kin. Sol) was 127 µM (≈ 49.8 µg/mL) throughout. In data set [2], the “Hepatocyte Cli” value is 26 mL/min/g. Besides, the “Mouse Heps Cl” value in data set [2] is listed as 26 mL/min/g. The compound also displayed a chromatographic logD in the data set “physchem [3]” of 2.8. Also, in data set [4], the “Microsomal Cli” value is 1.1 mL/min/g. Further, in data set [4], the “Mouse micro Cl” value turned out to be 1.1 mL/min/g. In addition, the MIC with M. tuberculosis (H37Rv) (read-out: H37Rv MIC A) turned out to be 0.1 µM (≈ 0.0392 µg/mL); with M. tuberculosis (H37Rv) (read-out: H37Rv MIC B), 0.4 µM (≈ 0.157 µg/mL); in the data set on M. tuberculosis (H37Rv) (setting [6]), 0.1 µM (≈ 0.0392 µg/mL); in the data set on M. tuberculosis (H37Rv) (setting [7]) it was 0.4 µM (≈ 0.157 µg/mL); in the data set on M. tuberculosis (H37Rv) (setting [8]), 0.3 µM (≈ 0.118 µg/mL); in the data set with M. tuberculosis (H37Rv) (setting [9]) it was 0.1 µM (≈ 0.0392 µg/mL).

Take `Cc1ncc(NC(=O)c2c(F)c(F)c(F)c(F)c2F)o1` [Compound 37, Cc1ncc(o1)NC(=O)c1c(c(c(c(c1F)F)F)F)F]: in the data set on HepG2 cells, the IC50 was over 100 µM. Moreover, the solubility kinetic in “physchem [1]” (setting [5]) and in the data set “physchem [1]” (read-out: Kin. Sol) was 105 µM (≈ 30.7 µg/mL) throughout. Further, the “Hepatocyte Cli” value in data set [2] turned out to be 5.8 mL/min/g. Besides, in data set [2], the “Mouse Heps Cl” value came out at 5.8 mL/min/g. The same compound showed a chromatographic logD in the data set “physchem [3]” of 1.9. Further, the “Microsomal Cli” value in data set [4] is under 0.5 mL/min/g. Further, the “Mouse micro Cl” value in data set [4] is given as under 0.5 mL/min/g. For the same compound, the MIC in the data set with M. tuberculosis (H37Rv) (read-out: H37Rv MIC A), in the data set on M. tuberculosis (H37Rv) (read-out: H37Rv MIC B), in the data set on M. tuberculosis (H37Rv) (setting [6]), with M. tuberculosis (H37Rv) (setting [7]), in the data set with M. tuberculosis (H37Rv) (setting [8]) and in the data set with M. tuberculosis (H37Rv) (setting [9]) was over 50 µM throughout.

Regarding `Cc1nc(C(=O)O)c(NC(=O)c2c(F)c(F)c(F)c(F)c2F)o1` [Compound 38, Cc1nc(c(o1)NC(=O)c1c(c(c(c(c1F)F)F)F)F)C(=O)O], the IC50 in the data set on HepG2 cells was over 100 µM. Further, the solubility kinetic in “physchem [1]” (setting [5]) and in “physchem [1]” (read-out: Kin. Sol) was 250 µM (≈ 84 µg/mL) in each case. For the same compound, in data set [2], the “Hepatocyte Cli” value is 1.3 mL/min/g. Also, the “Mouse Heps Cl” value in data set [2] was 1.3 mL/min/g. In the data set “physchem [3]”, this compound gave a chromatographic logD of 0.78. Further, the “Microsomal Cli” value in data set [4] is given as under 0.5 mL/min/g. Moreover, the “Mouse micro Cl” value in data set [4] is on record as under 0.5 mL/min/g. Also, the MIC with M. tuberculosis (H37Rv) (read-out: H37Rv MIC A) is over 50 µM; with M. tuberculosis (H37Rv) (read-out: H37Rv MIC B), over 50 µM; in the data set with M. tuberculosis (H37Rv) (setting [6]) it was 5.4 µM (≈ 1.82 µg/mL); with M. tuberculosis (H37Rv) (setting [7]), over 50 µM; in the data set on M. tuberculosis (H37Rv) (setting [8]) it was 43 µM (≈ 14.5 µg/mL); in the data set with M. tuberculosis (H37Rv) (setting [9]), 7.7 µM (≈ 2.59 µg/mL).

Take `CC(=O)c1nc(C)oc1NC(=O)c1c(F)c(F)c(F)c(F)c1F` [Compound 39, CC(=O)c1nc(oc1NC(=O)c1c(c(c(c(c1F)F)F)F)F)C]: the IC50 in the data set with HepG2 cells is over 100 µM. The solubility kinetic in “physchem [1]” (setting [5]) and in “physchem [1]” (read-out: Kin. Sol) was 241 µM (≈ 80.5 µg/mL) in each case. Also, in data set [2], the “Hepatocyte Cli” value was 8.6 mL/min/g. Further, the “Mouse Heps Cl” value in data set [2] worked out at 8.6 mL/min/g. The compound further displayed a chromatographic logD in the data set “physchem [3]” of 1.2. Further, the “Microsomal Cli” value in data set [4] is reported as under 0.5 mL/min/g. The “Mouse micro Cl” value in data set [4] is on record as under 0.5 mL/min/g. The MIC was found to be 1.2 µM (≈ 0.401 µg/mL) with M. tuberculosis (H37Rv) (read-out: H37Rv MIC A); 3.1 µM (≈ 1.04 µg/mL) with M. tuberculosis (H37Rv) (read-out: H37Rv MIC B); 1.2 µM (≈ 0.401 µg/mL) with M. tuberculosis (H37Rv) (setting [6]); 3.1 µM (≈ 1.04 µg/mL) in the data set on M. tuberculosis (H37Rv) (setting [7]); 3.1 µM (≈ 1.04 µg/mL) in the data set on M. tuberculosis (H37Rv) (setting [8]); 1.2 µM (≈ 0.401 µg/mL) in the data set with M. tuberculosis (H37Rv) (setting [9]).

For the origin of these results see paper PMC11915372, “Identification of a Series Containing a Pentafluorophenyl Moiety That Targets Pks13 to Inhibit Growth of Mycobacterium tuberculosis” (ACS Infectious Diseases, 2025).
